The experiment has as its target recombinant eIF4E (Homo sapiens (Human), UniProt P06730). Kind of experiment: Fluorescence polarization competition assay for eIF4E binding potency. The gist of the method:
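IC50 values reflect 50% displacement of 20 nM EDA-m7GDP-ATTO-550 from 75 nM eIF4E, measured by fluorescence polarization after 30 min at room temperature. Buffer: 20 mM Tris pH 7.5, 100 mM NaCl, 1 mM DTT, 0.02% Tween-20; 1% DMSO.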

Where [1] appears, read: inhibition of eIF4E/EDA-m7GDP-ATTO-550 binding, calculated IC50 values, Table 4B, read-out: IC50.
Setting [2] is: fluorescence polarization competition, 75 nM recombinant eIF4E, 20 nM EDA-m7GDP-ATTO-550, IC50 class, read-out: elF4E FP.
Where [3] appears, read: inhibition of eIF4E/EDA-m7GDP-ATTO-550 binding by 50%, Table 4B calculated values, read-out: IC50.

Where two headings read alike, the source gives them in different places. Where only a bound is given, the exact number is not on record here.

Sequence of recombinant eIF4E (P06730 whole entry): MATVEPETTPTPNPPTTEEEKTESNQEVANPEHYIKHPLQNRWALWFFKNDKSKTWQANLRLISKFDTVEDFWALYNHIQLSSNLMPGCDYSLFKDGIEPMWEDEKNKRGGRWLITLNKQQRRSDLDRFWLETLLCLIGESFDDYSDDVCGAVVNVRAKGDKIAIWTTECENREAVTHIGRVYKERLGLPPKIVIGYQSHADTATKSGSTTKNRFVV

Turning to `CCN(c1ncc2nc(C)n(CC#Cc3ccc(Cl)cc3-c3ccnc4c(C(=O)NS(=O)(=O)Cc5ccccn5)csc34)c(=O)c2c1C#N)C1CCN(C2COC2)CC1` [compound 1738], the IC50 under setting [1] was 25.5 nM.

Take `Cc1nc2cnc(N(C)C3CCN(CC(F)(F)F)CC3)c(C#N)c2c(=O)n1CC#Cc1ccc(Cl)cc1-c1ccnc2c(C(=O)NS(=O)(=O)CCC#N)csc12` [compound 1671]: the IC50 under setting [1] was 4.14 nM.

Regarding `Cc1cc(-c2cc(Cl)ccc2OCCn2c(C)nc3cnc(N4CCC(=O)C4)c(C#N)c3c2=O)c2scc(C(=O)O)c2n1` [compound 884], the IC50 is < 50 nM under setting [2] and 5.85 nM under setting [3].

For `Cc1nc2cc(C(F)F)c(C(F)F)c(C#N)c2c(=O)n1CCOc1ccc(Cl)cc1-c1cccc(C(=O)O)c1` [compound 64], the IC50 under setting [2] lay in the range of 50 to 1000 nM and the IC50 under setting [3] is 62.5 nM.

For `Cc1nc2cnc(N(C)C3CCN([C@H]4C[C@@H](OC(F)(F)F)C4)CC3)c(C#N)c2c(=O)n1CC#Cc1ccc(Cl)cc1-c1ccnc2c(C(=O)NS(C)(=O)=O)csc12` [compound 1772], the IC50 under setting [1] was 6.07 nM.

As to `Cc1nc2cnc(N3CCN(C(C)C(F)F)CC3)c(C#N)c2c(=O)n1CCOc1ccc(Cl)cc1-c1ccnc2c(C(=O)O)csc12` (stereo not drawn) [compound 1312], under setting [1], the IC50 was 8.29 nM.

With `Cc1nc2cncc(C#N)c2c(=O)n1CC#Cc1ccc(Cl)cc1-c1ccc(C(=O)O)c(C(=O)O)c1` [compound 149], the IC50 reads like this: under setting [2], 50 to 1000 nM; under setting [3], 110 nM.

For `N#Cc1cc(C(F)F)cc2ncn(CCOc3ccc(Cl)cc3-c3cccc(C(=O)O)c3)c(=O)c12` [compound 139], the IC50 under setting [2] is < 50 nM and the IC50 under setting [3] is 34.6 nM.

With `Cc1nc2cnc(/C=C/CN3CCC(F)(F)CC3)c(C#N)c2c(=O)n1CCOc1ccc(Cl)cc1-c1ccnc2c(C(=O)O)csc12` [compound 1121], the IC50 is, setting by setting: under setting [2], < 50 nM; under setting [3], 9.26 nM.

With `Cc1nc2cc(C(F)(F)F)c(CN3CCN(C)CC3)c(C#N)c2c(=O)n1CCOc1ccc(Cl)cc1-c1cc(CCF)nc2c(C(=O)O)csc12` [compound 644], the IC50 was < 50 nM under setting [2] and 4.97 nM under setting [3].

As for `Cc1nc2cc(C(F)(F)F)cc(C#N)c2c(=O)n1CCOc1ccc(Cl)cc1-c1ccnc2c(C(=O)NS(C)(=O)=O)csc12` [compound 569], the IC50 is < 50 nM under setting [2] and 2 nM under setting [3].

On to `Cc1cc(-c2cc(Cl)ccc2OCCn2c(C)nc3cnc(N4CCC(F)(F)CC4)c(C#N)c3c2=O)c2scc(C(=O)O)c2n1` [compound 1097], for which the IC50 under setting [2] was < 50 nM and the IC50 under setting [3] is 38.8 nM.

Turning to `Cc1nc2c(F)cc(Cl)c(C#N)c2c(=O)n1CCOc1ccc(Cl)cc1-c1ccnc2c(C(=O)O)csc12` [compound 407], the IC50 is, setting by setting: under setting [2], < 50 nM; under setting [3], 33.1 nM.

On to `Cc1nc2cnc(N(C)C3CCN(C4CC(F)(F)C4)CC3)c(C#N)c2c(=O)n1CC#Cc1ccc(Cl)cc1-c1ccnc2c(C(=O)O)csc12` [compound 1165], for which the IC50 is < 50 nM under setting [2] and 22.3 nM under setting [3].

Consider `N#Cc1cc2c(=O)n(Cc3cc4cc(Cl)cc(-c5cccc(C(=O)O)c5)c4o3)cnc2cn1` [compound 25], for which the IC50 reads like this: under setting [2], > 1000 nM; under setting [3], 12600 nM.

Turning to `Cc1cc(-c2cc(Cl)ccc2OCCn2c(C)nc3cc(C(F)(F)F)c(CCN(C)C)c(C#N)c3c2=O)c2sc(C)c(C(=O)O)c2n1` [compound 1200], the IC50 by setting is: under setting [2], < 50 nM; under setting [1], 14.8 nM.

Turning to `Cc1nc2cc(C(F)(F)F)cc(C#N)c2c(=O)n1CC#Cc1ccc(Cl)cc1-c1ccnc2c(C(=O)O)csc12` [compound 120], the IC50 under setting [2] was < 50 nM and the IC50 under setting [3] is 35.7 nM.

Turning to `Cc1cc(-c2c(C(F)(F)F)cc3nc(C)n(CCOc4ccc(Cl)cc4-c4cc(C)nc5c(C(=O)O)csc45)c(=O)c3c2C#N)c(C)cn1` [compound 469], the IC50 under setting [2] was < 50 nM and the IC50 under setting [3] was 2.25 nM.

Take `Cc1cc(-c2cc(Cl)ccc2OCCn2c(C)nc3cc(C(F)(F)F)c(-c4ccnc(C)n4)nc3c2=O)c2scc(C(=O)O)c2n1` [compound 769]: the IC50 runs as follows: under setting [2], < 50 nM; under setting [3], 23.9 nM.

For `COC(=O)c1csc2c(-c3cc(Cl)ccc3C#CCn3c(C)nc4cnc(N(C)C5CCN(CC(F)F)CC5)c(C#N)c4c3=O)ccnc12` [compound 1113], the IC50 is 50 to 1000 nM under setting [2] and 140 nM under setting [3].

In the case of `Cc1cc(-c2cc(Cl)ccc2OCCn2c(C)nc3cnc(C#N)cc3c2=O)c2scc(C(=O)O)c2n1` [compound 596], the IC50 runs as follows: under setting [2], < 50 nM; under setting [3], 37.7 nM.

Consider `Cc1cc(-c2cc(Cl)ccc2OCCn2c(C)nc3cc(Cl)c(Nc4cncc(F)c4)c(C#N)c3c2=O)c2scc(C(=O)O)c2n1` [compound 962], for which the IC50 under setting [2] is < 50 nM and the IC50 under setting [3] was 3.15 nM.

In the case of `Cc1nc2cc(C(F)(F)F)cc(C(F)(F)F)c2c(=O)n1CCOc1ccc(Cl)cc1-c1ccnc2c(C(=O)O)csc12` [compound 219], the IC50 under setting [2] was in the range of 50 to 1000 nM and the IC50 under setting [3] is 109 nM.

In the case of `Cc1nc2cc(C(F)(F)F)c(N3CCN(C)CC3)c(C#N)c2c(=O)n1CCOc1ccc(Cl)cc1-c1ccnc2cc(C#N)sc12` [compound 1245], the IC50 was < 50 nM under setting [2] and 15.6 nM under setting [1].

As for `Cc1nc2cc(S(=O)(=O)N(C)C)c(Cl)c(C#N)c2c(=O)n1CCOc1ccc(Cl)cc1-c1ccnc2c(C(=O)O)csc12` [compound 1948], the IC50 under setting [1] is 35.6 nM.

On to `Cc1cc(-c2cc(Cl)ccc2OCCn2c(C)nc3cnc(C(C)C)c(C#N)c3c2=O)c2scc(C(=O)O)c2n1` [compound 432], for which the IC50 is < 50 nM under setting [2] and 25.8 nM under setting [3].

As to `Cc1sc2c(-c3cc(Cl)ccc3OCCn3c(C)nc4c(C)nc(N5CCN(C)CC5)c(C#N)c4c3=O)ccnc2c1C(=O)O` [compound 1297], the IC50 under setting [1] is 37.8 nM.

As for `CC(=O)NS(=O)(=O)c1csc2c(-c3cc(Cl)ccc3OCCn3c(C)nc4c(F)cc(C(F)F)c(C#N)c4c3=O)cc(C)nc12` [compound 570], the IC50 reads like this: under setting [2], < 50 nM; under setting [3], 5.57 nM.

Turning to `Cc1nc2cc(OC(F)F)cc(C#N)c2c(=O)n1CCOc1ccc(Cl)cc1-c1ccnc2c(C(=O)O)csc12` [compound 1940], under setting [1], the IC50 was 34.9 nM.

For `Cc1nc2cnc(N(C)C3CCN(C)C3)c(C#N)c2c(=O)n1CCOc1ccc(Cl)cc1-c1ccnc2c(C(=O)O)csc12` (stereo not drawn) [compound 1323], the IC50 under setting [1] was 73 nM.

`Cc1nc2c(Cl)ccc(C#N)c2c(=O)n1CCOc1ccc(Cl)cc1-c1ccnc2c(C(=O)O)csc12` [compound 1942]: the IC50 under setting [1] is 182 nM.

As to `Cc1nc2cc(Cl)c(C#N)c(C#N)c2c(=O)n1CCOc1ccc(Cl)cc1-c1ccnc2c(C(=O)O)csc12` [compound 1949], the IC50 under setting [1] was 21.6 nM.

Consider `Cc1cc(C)c(-c2c(C(F)(F)F)cc3nc(C)n(CCOc4ccc(Cl)cc4-c4cc(C)nc5c(C(=O)O)csc45)c(=O)c3c2C#N)cn1` [compound 350], for which the IC50 was < 50 nM under setting [2] and 14.2 nM under setting [3].

`CCc1cc(-c2cc(Cl)ccc2OCCn2c(C)nc3cc(C(F)(F)F)c(-c4cccnc4)c(C#N)c3c2=O)c2scc(C(=O)O)c2n1` [compound 1013]: the IC50 under setting [2] was < 50 nM and the IC50 under setting [3] is 18.5 nM.

In the case of `Cn1cc(-c2cc(Cl)ccc2OCCn2cnc3cnc(C#N)cc3c2=O)cc1C(=O)O` [compound 82], the IC50 is > 1000 nM under setting [2] and 1660 nM under setting [3].

`N#Cc1cc2c(=O)n(CC#Cc3ccc(Cl)cc3-c3cccc(C(=O)O)c3)cnc2cn1` [compound 130]: the IC50 by setting is: under setting [2], > 1000 nM; under setting [3], 1420 nM.

For `Cc1nc2c(S(=O)(=O)N(C)C)ccc(C#N)c2c(=O)n1CCOc1ccc(Cl)cc1-c1ccnc2c(C(=O)O)csc12` [compound 237], the IC50 is, setting by setting: under setting [2], 50 to 1000 nM; under setting [3], 54.8 nM.

For the compound `Cc1cc(-c2cc(Cl)ccc2C#CCn2c(C)nc3cc(C(F)(F)F)c(-c4ccncn4)c(C#N)c3c2=O)c2scc(C(=O)O)c2n1` [compound 908], the IC50 reads like this: under setting [2], < 50 nM; under setting [3], 3.26 nM.

Take `Cc1nc2cnc(C3=CCC(F)(F)CC3)c(C#N)c2c(=O)n1CC#Cc1ccc(Cl)cc1-c1ccnc2c(C(=O)O)csc12` [compound 1482]: the IC50 under setting [1] was 16.6 nM.

For the compound `CCc1cc(-c2cc(Cl)ccc2OCCn2c(C)nc3cnc([C@@H]4[C@@H]5CN(C)C[C@@H]54)c(C#N)c3c2=O)c2scc(C(=O)O)c2n1` [compound 1216], the IC50 by setting is: under setting [2], < 50 nM; under setting [1], 10.3 nM.

`Cc1nc2c(N(C)C3CCN(C)C(C(F)F)C3)ncc(C#N)c2c(=O)n1CCOc1ccc(Cl)cc1-c1ccnc2c(C(=O)O)csc12` (stereo not drawn) [compound 864]: the IC50 is < 50 nM under setting [2] and 47.9 nM under setting [3].

With `Cc1cc(-c2cc(Cl)ccc2OCCn2c(C)nc3cc(C(F)(F)F)c(N4CCCC4)c(C#N)c3c2=O)c2scc(C(=O)O)c2n1` [compound 422], the IC50 by setting is: under setting [2], < 50 nM; under setting [3], 11.5 nM.

Turning to `Cc1cc(-c2cc(Cl)ccc2OCCn2c(C)nc3cc(C(F)(F)F)c[n+]([O-])c3c2=O)c2scc(C(=O)O)c2n1` [compound 1007], the IC50 runs as follows: under setting [2], < 50 nM; under setting [3], 48.2 nM.

As for `Cc1cc(-c2cc(Cl)ccc2OCCn2c(C)nc3cnc(CCN(C)C)c(C#N)c3c2=O)c2scc(C(=O)O)c2n1` [compound 365], the IC50 under setting [2] is < 50 nM and the IC50 under setting [3] was 19 nM.

Take `Cc1nc2cc(C(F)(F)F)c(N3CCN(C)CC3)c(C#N)c2c(=O)n1CCOc1ccc(Cl)cc1-c1ccnc2c(C(=O)O)csc12` [compound 834]: the IC50 is < 50 nM under setting [2] and 31.6 nM under setting [3].

Consider `CNC(=O)Cc1cc2c(=O)n(CCOc3ccc(Cl)cc3-c3cccc(C(=O)O)c3)cnc2cn1` [compound 137], for which the IC50 is, setting by setting: under setting [2], 50 to 1000 nM; under setting [3], 904 nM.

The values are drawn from patent publication US11286268B1, “EIF4E-inhibiting compounds and methods” (EFFECTOR THERAPEUTICS, INC., priority 2019, dated 2022).
